{"source": "patent US12030867B2", "about": "“Hsp90β selective inhibitors” (University of Notre Dame du Lac, priority 2018, dated 2024)", "key": {"[1]": {"system": "screened cancer cell lines", "assay": "inhibitory activity against a variety of cancer cell lines", "assay_type": "cell-based"}, "[2]": {"system": "MOLM-13 leukemia cells", "assay": "cells", "conditions": "Homo sapiens"}, "[3]": {"system": "HTB-9 bladder cancer cells", "assay": "tissue or blood"}, "[4]": {"system": "UM-UC3 bladder cancer cells", "assay": "cells", "conditions": "Homo sapiens, UMUC3"}, "[5]": {"system": "K562 leukemia cells", "assay": "cells", "conditions": "Homo sapiens"}, "[6]": {"system": "Hsp90 client proteins in HCT-116 cells", "assay": "western blot analysis following treatment of HCT-116 cells", "assay_type": "cell-based", "method": "(§1) 0.5 μM GDA was included as positive control and vehicle (D=DMSO) as negative control. […] Hsp90α siRNA was included as positive control and vehicle (lipofectamine) as negative control."}, "[7]": {"system": "HT1376 bladder cancer cells", "assay": "cells", "conditions": "Homo sapiens, HT-1376"}, "[8]": {"target": "Hsp90β (Homo sapiens (Human), UniProt P08238)", "sequence (P08238 whole entry, canonical isoform)": "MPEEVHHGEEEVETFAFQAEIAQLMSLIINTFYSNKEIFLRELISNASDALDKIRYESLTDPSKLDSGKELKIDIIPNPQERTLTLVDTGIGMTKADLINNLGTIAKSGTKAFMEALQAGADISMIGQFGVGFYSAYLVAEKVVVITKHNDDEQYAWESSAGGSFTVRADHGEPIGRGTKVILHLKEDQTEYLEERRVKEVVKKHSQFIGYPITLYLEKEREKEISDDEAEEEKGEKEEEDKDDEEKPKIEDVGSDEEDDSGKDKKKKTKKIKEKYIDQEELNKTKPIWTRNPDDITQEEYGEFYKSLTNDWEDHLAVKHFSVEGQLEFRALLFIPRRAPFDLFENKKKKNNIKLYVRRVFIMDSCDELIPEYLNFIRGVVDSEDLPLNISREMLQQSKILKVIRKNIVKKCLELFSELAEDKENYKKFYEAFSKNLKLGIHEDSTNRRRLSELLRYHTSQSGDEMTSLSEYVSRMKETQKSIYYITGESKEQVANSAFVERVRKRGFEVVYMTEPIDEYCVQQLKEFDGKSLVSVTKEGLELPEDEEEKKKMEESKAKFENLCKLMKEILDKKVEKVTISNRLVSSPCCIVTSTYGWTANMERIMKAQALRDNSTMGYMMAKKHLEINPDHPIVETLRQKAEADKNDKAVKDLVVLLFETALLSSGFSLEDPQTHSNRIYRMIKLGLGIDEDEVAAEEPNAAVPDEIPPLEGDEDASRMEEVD", "assay": "fluorescence polarization (FP) assay, competitive displacement of FITC labeled Geldanamycin", "assay_type": "binding", "conditions": "FP assay", "method": "Once prepared, the compounds were evaluated for their binding affinities against the cytosolic isoforms, Hsp90α and Hsp90β by measuring their ability to competitively displace FITC labeled Geldanamycin (GDA) in a fluorescence polarization assay (apparent Kd's listed in Table 1). […] The alkyne (4k) was investigated to determine whether a linear substituent could project into the subpocket and affect selectivity."}, "[9]": {"system": "HCT-116 colon cancer cells", "assay": "cells", "conditions": "Homo sapiens"}, "[10]": {"system": "HTB-5 bladder cancer cells", "assay": "tissue or blood"}, "[11]": {"system": "hERG channel", "assay": "western blot analysis of hERG channel trafficking in hERG-HEK293 cells", "assay_type": "cell-based", "conditions": "HEK293 cells expressing the hERG channel", "method": "as §1"}}}
{"smiles": "CCCC1Cc2cc(-n3nc(C)c4c3CC(C)(C)CC4=O)cc(N[C@H]3CC[C@H](O)CC3)c2C(=O)N1", "note": "(some centres unmarked) [Compound 6a, 8-(((1r,4r)-4-hydroxycyclohexyl)amino)-3-propyl-6-(3,6,6-trimethyl-4-oxo-4,5,6,7-tetrahydro-1H-indazol-1-yl)-3,4-dihydroisoquinolin-1(2H)-one]", "values": [{"measurement": "IC50 values against the screened cancer cell lines (in words)", "setting": "[1]", "value": "submicromolar"}, {"measurement": "IC50", "setting": "[2]", "value": 39.4, "unit": "nM"}, {"measurement": "IC50", "setting": "[3]", "value": 811, "unit": "nM"}, {"measurement": "IC50", "setting": "[4]", "value": 1050, "unit": "nM"}, {"measurement": "IC50", "setting": "[5]", "value": 498, "unit": "nM"}, {"measurement": "CDK4, CDK6, cIAP1 and CXCR4 levels (Hsp90β-dependent clients)", "setting": "[6]", "value": "induced the degradation"}, {"measurement": "total levels of Akt-1 and Raf-1", "setting": "[6]", "value": "not affected"}, {"measurement": "Hsf-1, Hsp70 and Hsp90 levels", "setting": "[6]; 24 h exposure", "value": "induced the degradation"}, {"measurement": "IC50", "setting": "[7]", "value": 716, "unit": "nM"}, {"measurement": "affinity for Hsp90β (in words)", "setting": "[8]", "value": "increased binding affinity"}, {"measurement": "selectivity for Hsp90β over Hsp90α (in words)", "setting": "[8]", "value": "enhanced selectivity"}, {"measurement": "IC50", "setting": "[9]", "value": 265, "unit": "nM"}, {"measurement": "IC50", "setting": "[10]", "value": 935, "unit": "nM"}, {"measurement": "hERG channel maturation and trafficking", "setting": "[11]", "value": "not affected"}]}
